Source: ChEMBL document CHEMBL1641441, “A novel screening model for the molecular drug for diabetes and obesity based on tyrosine phosphatase Shp2” (Bioorg Med Chem Lett, 2011)
The source made the active and inactive calls.

Tests used:
[1] = target: Tyrosine-protein phosphatase non-receptor type 6 (Homo sapiens) (UniProt P29350); test: Increase of GST-tagged full length Shp1 activity expressed in Escherichia coli BL21 at 10 uM after 30 mins
[2] = target: Dual specificity protein phosphatase 3 (Homo sapiens) (UniProt P51452); test: Increase of GST-tagged full length Vhr activity expressed in Escherichia coli BL21 at 10 uM after 30 mins
[3] = target: T1, Tyrosine-protein phosphatase non-receptor type 7 (Homo sapiens) (UniProt P35236); test: Increase of GST-tagged full length HePTP activity expressed in Escherichia coli BL21 at 10 uM after 30 mins
T1 sequence (whole entry): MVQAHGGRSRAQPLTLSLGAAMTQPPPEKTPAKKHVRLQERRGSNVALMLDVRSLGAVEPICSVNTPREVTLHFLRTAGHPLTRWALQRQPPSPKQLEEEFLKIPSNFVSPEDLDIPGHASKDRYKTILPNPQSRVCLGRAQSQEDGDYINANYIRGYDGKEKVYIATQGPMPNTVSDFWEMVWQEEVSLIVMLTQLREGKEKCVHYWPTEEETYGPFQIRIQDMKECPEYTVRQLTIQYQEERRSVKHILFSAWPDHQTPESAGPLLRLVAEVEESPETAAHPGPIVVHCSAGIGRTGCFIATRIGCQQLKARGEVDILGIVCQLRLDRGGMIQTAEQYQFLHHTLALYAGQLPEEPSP

Measured: Activity

Chain of Dual specificity protein phosphatase 3 (Homo sapiens) (P51452 whole entry, looked up): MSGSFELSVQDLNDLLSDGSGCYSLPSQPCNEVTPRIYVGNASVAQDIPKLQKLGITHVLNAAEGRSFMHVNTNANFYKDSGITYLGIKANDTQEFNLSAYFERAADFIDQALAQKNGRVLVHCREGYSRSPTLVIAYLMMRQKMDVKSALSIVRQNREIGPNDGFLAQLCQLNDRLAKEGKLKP
Chain of Tyrosine-protein phosphatase non-receptor type 6 (Homo sapiens) (P29350 whole entry): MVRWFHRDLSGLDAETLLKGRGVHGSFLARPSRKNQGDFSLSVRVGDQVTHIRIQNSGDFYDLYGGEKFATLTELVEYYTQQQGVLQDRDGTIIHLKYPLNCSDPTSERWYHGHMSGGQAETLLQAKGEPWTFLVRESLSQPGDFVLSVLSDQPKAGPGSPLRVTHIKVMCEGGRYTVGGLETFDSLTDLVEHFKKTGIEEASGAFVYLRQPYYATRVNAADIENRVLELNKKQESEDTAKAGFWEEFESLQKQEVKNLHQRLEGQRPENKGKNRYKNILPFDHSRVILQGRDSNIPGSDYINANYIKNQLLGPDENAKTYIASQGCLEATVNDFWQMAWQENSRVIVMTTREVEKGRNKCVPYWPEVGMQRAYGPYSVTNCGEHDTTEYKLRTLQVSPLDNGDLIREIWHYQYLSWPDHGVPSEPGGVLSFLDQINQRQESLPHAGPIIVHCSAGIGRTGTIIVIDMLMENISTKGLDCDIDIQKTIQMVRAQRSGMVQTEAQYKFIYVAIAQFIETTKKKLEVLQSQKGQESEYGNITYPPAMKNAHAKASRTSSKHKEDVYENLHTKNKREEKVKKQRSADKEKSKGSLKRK

CC1(C)CC[C@]2(C(=O)O)CC[C@]3(C)C(=CC[C@@H]4[C@@]5(C)CC[C@H](O)C(C)(C)[C@@H]5CC[C@]43C)[C@@H]2C1
inactive: [1] | [2] | [3]
